Source: US10105372B2, “Methods of treating obesity using antioxidant inflammation modulators” (REATA PHARMACEUTICALS, INC., priority 2010, dated 2018)
Entries after “also recorded” stand apart in the source; their conditions may differ. Marks after values point to notes of the source that are not given here.

Legend:
[1] = Phase 2 clinical trial, renal function, glycemic control, circulating endothelial cells; format: in vivo, human
Description: See U.S. Patent Application Publication 2009/0326063A1, which is incorporated by reference herein in its entirety. […] In this study, the protocol stipulated that patient weights were to be taken at baseline (D−1=1 day before initiation of dosing), Day 28, and Day 56. Weight data were available for all but one patient who started the study (a baseline weight was not recorded for this patient). In the remaining patients, 14 of 17 had lost weight at Day 28 (mean weight loss was 1.6% of baseline weight) and 17 of 17 had lost weight at Day 56 (mean weight loss was 3.7% of baseline, with a median of 3.1%). […] Prior to initiation of treatment, basic clinical observations (e.g., weight, blood pressure, height) were recorded along with baseline values for serum creatinine, blood urea nitrogen, serum phosphorus, serum uric acid, angiotensin II, fasting glucose, hemoglobin A1c, circulating endothelial cells (CECs), and iNOS-positive CECs. […] Reductions of more than 10% were also observed in BUN, serum creatinine, uric acid, and urinary albumin creatinine ratio.

[2] = 12-month toxicity study, body weight; format: in vivo, cynomolgus monkeys; settings: for % gain / kg gained: pretest to Week 50
Experimental: All the animals were healthy and within normal weights for their age at the start of the study. The dose levels were 0, 30/5, 100/30, and 300 mg/kg/day and administered at a dose volume of 3 mL per dose. The control group received the vehicle in the same manner as the treated groups. Just prior to administration, the test article for each animal was added to the syringe containing the vehicle for each animal and vortexed until thoroughly mixed to achieved the desired concentrations of 30, 100, and 300 mg/mL through Day 42 (Week 6). During administration, the syringe containing the test article preparation for each animal was pushed through the gavage tube. The 1 mL vehicle rinse was then added to the dosing syringe and administered. After administration of both volumes, a 5 mL flush of the vehicle was used to rinse the gavage tube and ensure that the entire amount of the test article was administered to the animal. […] Therefore, dose levels were adjusted so that different blood exposures could be examined. During Week 7 dosing for all animals was stopped for four days (Days 43 to 46). The initial dose levels of 30 and 100 mg/kg/day were reduced to 5 and 30 mg/kg/day, respectively, and dosing was resumed on Day 47 through Day 353. Individual doses were based on the most recent body weights.

[3] = Phase 2b/3 trial, estimated GFR and CKD stage; format: in vivo, human; settings: for patients with improvement in CKD stage: Stage 4 to 3b or 3b to 3a; for Change from baseline eGFR, mean ± SE: longitudinal model
Experimental: Weight measurements were included in the study as a basic clinical parameter. […] Screening estimated GFR was calculated as the mean of two estimated GFR results (differing no more than 25%) collected at least 5 days apart within a 3-week period. […] Exclusion criteria included type 1 diabetes, non-diabetic kidney disease, hemoglobin A1c>10%, QTc […] interval >450 milliseconds, evidence of hepatic dysfunction, and recent cardiovascular disease. […] Study drug was taken orally once daily in the morning one hour prior to food intake. Dose titration occurred as follows: (1) placebo; (2) 25 mg; (3) 25 mg, increased to 75 mg after 4 weeks; and (4) 25 mg, increased to 75 mg after 4 weeks, further increased to 150 mg after an additional 4 weeks. Randomization was stratified by CKD stage (3b versus 4), urinary albumin to creatinine ratio (ACR; ≤ versus >300 mg/g), and glucose control (hemoglobin A1c< versus ≥7%). An independent Data Safety Monitoring Board monitored patient safety. Estimated GFR and routine safety laboratory testing was done at screening and every four weeks thereafter using a central laboratory. Adverse events and clinical laboratory parameters were assessed at each visit. Analysis of the primary outcome, change from baseline estimated GFR at Week 24, occurred after all randomized patients completed Week 24 or previously discontinued study. Exploratory outcomes included change from baseline at Week 24 in serum creatinine, blood urea nitrogen, serum phosphorus, uric acid, ACR, hemoglobin A1c, and intact parathyroid hormone.

[4] = Stratum 2, All Patients (n = 18), change
[5] = Week 24, all bardoxolone methyl patients

## COC(=O)[C@]12CCC(C)(C)C[C@H]1[C@H]1C(=O)C=C3[C@@]4(C)C=C(C#N)C(=O)C(C)(C)[C@@H]4CC[C@@]3(C)[C@]1(C)CC2 [bardoxolone methyl]
[1]; Phase 2 study
  CECs: Significant reductions
  iNOS-positive CECs: Significant reductions
  reduction in BUN: more than 10%
  reduction in serum creatinine: more than 10%
  reduction in uric acid: more than 10%
[1]; Stratum 2, All Patients (n = 18)
  Patients with eGFR Increase: 89%
[1]; [4]
  Blood Urea Nitrogen: −14.9%
  Circulating Endothelial Cells: −34.8%^†
  Creatinine Clearance: +38.2%^†
  Phosphorus: −2.5%
  Serum Creatinine: −17.5%**
  Uric Acid: −13.3%^†
  eGFR: +24.1%***
  iNOS+ Circulating Endothelial Cells: −65.8%*
[1]; Stratum 2, patients with BL ≥ 7.0%, change
  Hemoglobin A1c: −0.1%
[1]; after 28 days of treatment
  eGFR increase: approximately 10%
[1]; after 56 days of treatment
  eGFR increase compared to baseline: more than 20%
[2]; Females, 300 mg/kg/day
  Week 26 Weight: 2.552 kg
  Week 50 Weight: 2.68 kg
  % gain: 28.60%
  kg gained: 0.596 kg
[2]; Females, 30/5 mg/kg/day
  Week 26 Weight: 2.454 kg
  Week 50 Weight: 2.608 kg
  % gain: 26.05%
  kg gained: 0.539 kg
[2]; Females, 100/30 mg/kg/day
  Week 26 Weight: 2.293 kg
  Week 50 Weight: 2.68 kg
  % gain: 30.22%
  kg gained: 0.622 kg
[2]; Males, 300 mg/kg/day
  Week 26 Weight: 2.52 kg
  Week 50 Weight: 2.808 kg
  % gain: 31.15%
  kg gained: 0.667 kg
[2]; Males, 30/5 mg/kg/day
  Week 50 Weight: 2.975 kg
  % gain: 39.80%
  kg gained: 0.847 kg
[2]; Males, 30/5 mg/kg/day oral gavage
  Week 26 Weight: 2.567 kg
[2]; Males, 100/30 mg/kg/day
  Week 26 Weight: 2.464 kg
  Week 50 Weight: 2.725 kg
  % gain: 26.63%
  kg gained: 0.573 kg
[2]; healthy monkeys with normal body weights, all treated groups, 26 and 50 weeks
  effect on body weight: gained significant amounts of weight; also recorded: did not induce weight loss
[3]; 25 mg group
  patients with improvement in CKD stage: 53%
[3]; 75 mg group
  patients with improvement in CKD stage: 69%
[3]; 150 mg group
  patients with improvement in CKD stage: 61%
[3]; Week 24, 25 mg group
  estimated GFR, mean increases compared to placebo: 8.3±1.1 mL/min/1.73 m^2
[3]; Week 24, 25 mg vs placebo
  Change from baseline eGFR, difference between bardoxolone methyl and placebo, mean ± SE: 8.2 ± 1.5 mL/min/1.73 m^2
[3]; Week 24, 25 mg
  Change from baseline eGFR, mean ± SE: 8.3 ± 1.1 mL/min/1.73 m^2
[3]; Week 24, 75 mg group
  estimated GFR, mean increases compared to placebo: 11.5±1.1 mL/min/1.73 m^2
[3]; Week 24, 75 mg vs placebo
  Change from baseline eGFR, difference between bardoxolone methyl and placebo, mean ± SE: 11.4 ± 1.5 mL/min/1.73 m^2
[3]; Week 24, 75 mg
  Change from baseline eGFR, mean ± SE: 11.5 ± 1.1 mL/min/1.73 m^2
[3]; Week 24, 150 mg group
  estimated GFR, mean increases compared to placebo: 10.6±1.1 mL/min/1.73 m^2
[3]; Week 24, 150 mg vs placebo
  Change from baseline eGFR, difference between bardoxolone methyl and placebo, mean ± SE: 10.5 ± 1.5 mL/min/1.73 m^2
[3]; Week 24, 150 mg
  Change from baseline eGFR, mean ± SE: 10.6 ± 1.1 mL/min/1.73 m^2
[3]; [5]
  patients with more than a 10% increase in estimated GFR: 74%
  patients with more than a 50% increase in estimated GFR: 24%
[3]; Week 24, combined vs placebo
  Change from baseline eGFR, difference between bardoxolone methyl and placebo, mean ± SE: 10.0 ± 1.3 mL/min/1.73 m^2
[3]; bardoxolone methyl groups
  time from treatment initiation to observed increases in estimated GFR: ≤ 4 weeks
[3]; bardoxolone methyl groups, stable through Week 24
  time of peak increase in estimated GFR: 12 Week
[3]; each bardoxolone methyl group (2 patients)
  patients with worsening of CKD stage: 4%
